The results in this text go back to US12286423B2, “Antiviral 1,3-di-oxo-indene compounds” (Novartis AG, priority 2020, dated 2025).

Common to all, as to assay type: cell-based
One series relates to HRV A1B. In words: HRV A1B CPE inhibition assay. The following applies: Human rhinovirus sp., cytopathic effect inhibition, read-out: HRV A1B_CPE (EC50 μM). Here is the method:
(§1) Bioactivity of the Compounds of the Invention was Determined Using the Following Methods. Determination of Drug Efficacy Against Picornaviruses Using Cytopathic Effect (CPE) Inhibition Assay
(§2) In the assay, HeLa (human cervical cancer cells), MRC-5 (human fetal lung fibroblast cells), and RD cells (derived from human rhabdomyosarcoma) were employed. For comparison, ribavirin (Riv), Pleconaril (pleco), and […] (BTA) were used as controls. Reagents were dissolved at a concentration of 10-40 mg/ml in 100% dimethyl sulfoxide (DMSO). Water-soluble reagents were dissolved in PBS (−) solution and stored at −20° C. On the day of the experiment, they were used in 3 fold to 5 fold concentrations in such a manner that the concentration of dimethyl sulfoxide in each well was between 0.5% and 1%.
(§3) Pharmaceutical efficacy was determined using a virus-induced cytopathic effect (CPE) inhibition assay. In this regard, after cells suitable for viruses were grown in 96-well plates, dilutions of viruses in DME supplemented with 2% FBS (DME/2% FBS) or MEM supplemented with 2% FBS (MEM/2% FBS) were inoculated in an amount of […] with a concentration corresponding to 100 CCID50 (50% cell culture infective dose) into each well of the plates, and incubated for 30 min-1 hr at 33° C. or 37° C. to allow the viruses to adsorb onto the cells. The culture medium was removed before aliquots of drug dilutions with various concentrations were added in an amount of 100 μl to each well. While HRV (human rhinovirus) was grown at 33° C., the other viruses were incubated in a 37° C. CO2 incubator for 2-3 days. Alternatively, the cells were cultured for 2-3 days without removal of the medium after they were added with 50 μl of each drug dilution having a 2-fold higher concentration and then with 50 μl of the virus dilution. Viruses were incubated in host HeLa cells at 37° C. for 2-3 days in DME/2% or MEM/2% FBS.
(§4) For HeLa cells, the drugs were measured for EC50 (50% maximal effective concentration), which is the concentration of a drug inducing a response halfway between the baseline and maximum, using an MTT assay. With regard to RD and MRC-5 cells, CPE was determined using FDA (Fluorescein diacetate) or MTT. In order to determine the effect of drug toxicity on efficacy results, at the time of inoculation with the virus, mock-infection was also included. A virus-free medium was added to a cell culture, which was then subjected to the same treatment as the mock-infected cells inoculated with the virus. That is, the medium was removed after one hour of incubation, and dilutions of drugs in the medium were added once more. Following incubation for 2-3 days, the cells were observed under a microscope and the drugs were determined for CC50 (50% cytotoxic concentration) at which 50% of the cells were killed, using an MTT assay in which counts of viable cells in mock-infected wells containing drugs were compared to those of viable cells in control wells containing no drugs. In an FDA hydrolysis assay, FDA was added to each well after removal of the medium, and incubated for 20-30 min before fluorescence intensity was measured using a spectrofluorometer to determine CPE in the same manner as in MTT.
(§5) In addition, antiviral effects can be calculated using Mathematical Formula 2 below: Antiviral Effect=[A(Drug/Virus)−A(Virus Control)/A(Cell control)−A(Virus Control)]
(§6) If the survival rate is 100%, its antiviral effect is 100% whereas if the survival rate is 0%, its antiviral effect is none. […]
(§7) Specifically, cells grown to confluence in 96-well plates were infected with 100 50% cell culture infected doses (CCID50) of virus. After an adsorption period of 2 hrs at 37° C., the virus was removed and serial dilutions of the compounds were added. […] After removal of the medium, 90 μl of a culture medium and 10 μl of MTS-phenazine methosulfate (Promega, Leiden, The Netherlands) were added to each well. […]

For a further series, the system named is HRV B14. The series can be described thus: HRV B14 CPE inhibition assay. The note with it: Human rhinovirus sp.; HRV B14, cytopathic effect inhibition. Here is the method: as §1, §2, §3, §4, §5, §6, §7
On the technique in general: Damage to the host cells serves as the signal in cytopathic effect assays.

The next series deals with HRV A29. In words: HRV A29 CPE inhibition assay. The following applies: Human rhinovirus sp.; HRV A29, cytopathic effect inhibition. Here is the method: as §1, §2, §3, §4, §5, §6, §7
A further series relates to HRV A16. In words: HRV A16 CPE inhibition assay. The note with it: Human rhinovirus sp.; HRV A16, cytopathic effect inhibition. Here is the method: as §1, §2, §3, §4, §5, §6, §7
Series [1] in a line: Cytotoxicity (CC50) in mock-infected cells, MTT assay. The following applies: human, HeLa cells (mock-infected), 50% cytotoxic concentration, read-out: CYTOTOX (CC50 μM). Here is the method:
as §4
That is, the survival rate (% survival) of mock-infected cells for cytotoxicity measurement was calculated using the Mathematical Formula 1 below: Cell Drug=Survival by [A(Drug)−A(Background solution)/A(Cell control)−A(Background×100% Solution)]
While 100% cell survival means no cytotoxicity of the drug, the highest cytotoxicity is reflected by 0% cell survival. The 50% cytotoxic concentration was defined as the concentration required to reduce the cell number by 50%. This concentration of the drug is represented as CC50. Higher values mean lower cytotoxicity. […]
In Mathematical Formulae 3 and 4 above, • OD (CC) represents the OD of the background cell culture that is neither induced by a virus nor treated by chemical, • OD (VC) represents the OD of the control cell culture that is induced by a virus but not treated by chemical, • OD (Virus+Compound) represents the OD of the cell culture infected by a virus that has been treated with a concentrated compound, • OD (Compound) represents the OD of the cell culture that has been treated with a concentrated compound only, and • OD (Blank) represents the OD of the well to which only the cell culture has been added.
The effective concentration (EC50) represents the concentration of a drug at which 50% of cells are allowed to survive by CPE of an induced virus, and the cytotoxicity concentration (CC50) represents the concentration of a drug at which a compound has killed 50% of cells, and they were calculated by the logarithmic interpolation.
In general terms: Tetrazolium dyes change colour on reduction, which living cells bring about.

The next series relates to C15_C3 REPLICON
In words: C15_C3 replicon assay.

In the case of `C[C@@H](c1ccc2c(c1)O[C@]1(O)c3cccc(N)c3C(=O)[C@]21NC(=O)CN1CCC1)C1CC1` [Example 17, N-((4bR,9bR)-1-amino-7-((R)-1-cyclopropylethyl)-4b-hydroxy-10-oxo-4b,10-dihydro-9bH-indeno[1,2-b]benzofuran-9b-yl)-2-(azetidin-1-yl)acetamide], the EC50 (as a rule, the concentration at which the effect is half-maximal) in the series on HRV A1B was found to be 0.016 µM; in the series on HRV B14, 0.016 µM; with HRV A29, 0.018 µM; with HRV A16, 0.07 µM; in the series with C15_C3 REPLICON, 1.36 µM. Further, in series [1], the CC50 (commonly the concentration giving 50% cytotoxicity) is 24.5 µM.

Regarding `Cc1cc(S(C)(=O)=O)[nH]c1C(=O)NC12C(=O)c3c(N)cccc3C1(O)Oc1cc([C@@H]3C[C@@H]3C)ccc12` (stereo partly drawn) [Example 26, N-(1-amino-4b-hydroxy-7-((1R,2S)-2-methylcyclopropyl)-10-oxo-4b,10-dihydro-9bH-indeno[1,2-b]benzofuran-9b-yl)-3-methyl-5-(methylsulfonyl)-1H-pyrrole-2-carboxamide], the EC50 came to 0.17 µM with HRV A1B; 0.016 µM with HRV B14; 0.274 µM in the series on HRV A29; 0.093 µM with HRV A16; 8.37 µM with C15_C3 REPLICON. The CC50 in series [1] worked out at 37.1 µM.

`Cc1c(C(=O)N[C@]23C(=O)c4c(N)cccc4[C@@]2(O)Oc2cc([C@H](C)C4CC4)ccc23)[nH]c(=O)n1C` [Example 22, N-((4bR,9bR)-1-amino-7-((R)-1-cyclopropylethyl)-4b-hydroxy-10-oxo-4b,10-dihydro-9bH-indeno[1,2-b]benzofuran-9b-yl)-1,5-dimethyl-2-oxo-2,3-dihydro-1H-imidazole-4-carboxamide]: the EC50 in the series with HRV A1B came out at 0.041 µM; with HRV B14 it was 0.016 µM; with HRV A29, 0.023 µM; in the series on HRV A16 it was 0.063 µM; in the series on C15_C3 REPLICON it was 1.89 µM. The CC50 in series [1] is 34.9 µM.

In the case of `Cc1cc(S(=O)(=O)N2CCN(C)CC2)[nH]c1C(=O)N[C@]12C(=O)c3c(N)cccc3[C@@]1(O)Oc1cc(OC(C)C)ccc12` (single isomer, unassigned) [Example 19], the EC50 amounted to 0.016 µM in the series on HRV A1B, 0.046 µM in the series on HRV A29, 0.022 µM with HRV A16 and 0.876 µM in the series with C15_C3 REPLICON. The CC50 in series [1] turned out to be 48.3 µM.

`Cc1c(S(C)(=O)=O)c[nH]c1C(=O)NC12C(=O)c3c(N)cccc3C1(O)Oc1cc([C@H]3C[C@H]3C)ccc12` (stereo partly drawn) [Example 27, N-(1-amino-4b-hydroxy-7-((1S,2R)-2-methylcyclopropyl)-10-oxo-4b,10-dihydro-9bH-indeno[1,2-b]benzofuran-9b-yl)-3-methyl-4-(methylsulfonyl)-1H-pyrrole-2-carboxamide]: the EC50 in the series with HRV A1B was found to be 0.02 µM; in the series with HRV B14 it was 0.016 µM; with HRV A29 it was 0.079 µM; with HRV A16 it was 0.084 µM; in the series with C15_C3 REPLICON, 0.705 µM. Moreover, the CC50 in series [1] was 40.4 µM.

On to `Cc1c(S(C)(=O)=O)c[nH]c1C(=O)NC12C(=O)c3c(N)cccc3C1(O)Oc1cc([C@@H]3C[C@@H]3C)ccc12` (stereo partly drawn) [Example 16, N-(1-amino-4b-hydroxy-7-((1R,2S)-2-methylcyclopropyl)-10-oxo-4b,10-dihydro-9bH-indeno[1,2-b]benzofuran-9b-yl)-3-methyl-4-(methylsulfonyl)-1H-pyrrole-2-carboxamide], for which the EC50 with HRV B14 was determined as 0.016 µM; in the series on HRV A29, 0.104 µM; in the series with HRV A16, 0.199 µM; in the series with C15_C3 REPLICON, 1.82 µM. In addition, the CC50 in series [1] is 37.7 µM.

`Cc1c(C(=O)N[C@]23C(=O)c4c(N)cccc4[C@@]2(O)Oc2cc([C@@H](C)C4CC4)ccc23)[nH]c(=O)n1C` [Example 18, N-((4bR,9bR)-1-amino-7-((S)-1-cyclopropylethyl)-4b-hydroxy-10-oxo-4b,10-dihydro-9bH-indeno[1,2-b]benzofuran-9b-yl)-1,5-dimethyl-2-oxo-2,3-dihydro-1H-imidazole-4-carboxamide]: the EC50 was found to be 0.018 µM in the series with HRV A1B, 0.016 µM in the series with HRV A29, 0.05 µM in the series on HRV A16 and 1.65 µM in the series with C15_C3 REPLICON. Further, in series [1], the CC50 is 31.8 µM.
